Laboratory results from patent publication US11077042B2, “Liquid hair dye composition” (KAO CORPORATION, priority 2017, dated 2021).

Experiment: pKa of the azo dye
Format: physicochemical
Settings: assumes blue color by proton dissociation
Excerpt: The liquid hair dye composition of the present invention contain, as component (A), an azo dye represented by Formula (A-2) below (HC Blue 18). The pKa of the azo dye (A-2) is 6.0, and assumes blue color by proton dissociation.

pKa: 6
Compound: NS(=O)(=O)c1ccc2nsc(N=Nc3ccc(O)c(Cl)c3)c2c1 [Example A-2, HC Blue 18]
